Values of other authors, collected in US12479917B2, “Methods of treating NSCLC comprising administering platinum doublet chemotherapy followed by an anti-PD-1 antibody and an anti-CTLA-4 antibody” (priority 2018, dated 2025).

How the values were obtained:
[1] = test system: advanced NSCLC; conditions: second line (2 L)
[2] = monotherapy, every two weeks; MTD not reached

Molecule | efficacy outcomes compared with docetaxel [1] | side effects compared with docetaxel [1] | maximum tolerated dose (MTD) [2] [mg/kg]
Nc1nc2[nH]cc(CCc3ccc(C(=O)N[C@@H](CCC(=O)O)C(=O)O)cc3)c2c(=O)[nH]1 [Pemetrexed] | clinically equivalent efficacy outcomes | significantly fewer side effects | 
nivolumab |  |  | > 10
